This note sets out measurements from patent US12673946B2, “Pyrimidin-4(3H)-one derivatives as TRPV4 antagonists” (RaQualia Pharma Inc., priority 2020, dated 2026).

The test deals with T1, human TRPV4 (Homo sapiens, UniProt Q9HBA0).
T1 construct: host or cells: tetracycline-inducible Flp-In T-REx 293 cells
Put plainly: Hypotonicity-induced Ca2+ influx (Fluo-4, FDSS). The test is classed as cell-based. In short, it runs like this: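 Flp-In T-REx 293 cells with tetracycline-induced human TRPV4, loaded with Fluo-4 for 60 min at 25 °C. Compound added 5 min before hypotonic mannitol/CaCl2 solution. Ca2+ signal recorded for 4.5 min on FDSS.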

Setting [1] is: Flp-In T-REx 293 cells expressing human TRPV4, examples listed under heading 'Human IC50<50 nM'.
The mark [2] stands for this setting: Flp-In T-REx 293 cells stably expressing human TRPV4, compounds listed by potency bin (<10 nM Tables 96-1/96-2, <3 nM Table 97).

T1 sequence (Q9HBA0 whole entry): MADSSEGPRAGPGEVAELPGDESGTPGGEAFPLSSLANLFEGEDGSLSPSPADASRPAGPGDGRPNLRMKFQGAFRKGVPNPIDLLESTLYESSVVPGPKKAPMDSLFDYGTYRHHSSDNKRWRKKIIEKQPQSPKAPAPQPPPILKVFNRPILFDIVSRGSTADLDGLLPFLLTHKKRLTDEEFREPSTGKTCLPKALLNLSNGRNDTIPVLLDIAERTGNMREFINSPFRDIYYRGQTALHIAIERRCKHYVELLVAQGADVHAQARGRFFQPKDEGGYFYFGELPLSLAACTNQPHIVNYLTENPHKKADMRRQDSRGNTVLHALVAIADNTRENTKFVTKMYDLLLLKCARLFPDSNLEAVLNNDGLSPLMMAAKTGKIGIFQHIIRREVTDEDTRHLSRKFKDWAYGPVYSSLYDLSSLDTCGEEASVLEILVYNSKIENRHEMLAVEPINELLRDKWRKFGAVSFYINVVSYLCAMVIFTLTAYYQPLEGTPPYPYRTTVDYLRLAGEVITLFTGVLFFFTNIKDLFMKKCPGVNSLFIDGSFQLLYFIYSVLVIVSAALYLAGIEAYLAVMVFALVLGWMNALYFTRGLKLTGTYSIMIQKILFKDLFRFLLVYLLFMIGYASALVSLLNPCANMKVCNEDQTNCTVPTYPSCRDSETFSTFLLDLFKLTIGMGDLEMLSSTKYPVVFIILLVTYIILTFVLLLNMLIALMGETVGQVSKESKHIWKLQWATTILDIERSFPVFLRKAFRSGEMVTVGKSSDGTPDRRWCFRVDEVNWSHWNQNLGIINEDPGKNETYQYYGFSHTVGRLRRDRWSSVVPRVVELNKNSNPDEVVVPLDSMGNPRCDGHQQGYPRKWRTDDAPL

For orientation: IC50 means the concentration at which inhibition is half-maximal. Take `O=C(C(O)c1cccc(-c2cccc(C(F)(F)F)c2)c1)N1CCc2nc(C3(c4ccccc4)CC3)[nH]c(=O)c2C1` (stereo not drawn) [44-6]: the IC50 reads like this: under setting [1], under 50 nM; under setting [2], under 10 nM.

Consider `CC(C)(C)c1cccc(-c2cccc(C(O)C(=O)N3CCc4nc(C5(c6ccccc6)CC5)[nH]c(=O)c4C3)c2)c1` (stereo not drawn) [44-7], for which the IC50 runs as follows: under setting [1], under 50 nM; under setting [2], under 10 nM.

With `O=C(C(O)c1cccc(-c2cc(C(F)(F)F)cc(C(F)(F)F)c2)c1)N1CCc2nc(C3(c4ccccc4)CC3)[nH]c(=O)c2C1` (stereo not drawn) [44-8], the IC50 was under 50 nM under setting [1] and under 10 nM under setting [2].

As to `O=C(C(O)c1cccc(-c2cc3ccccc3s2)c1)N1CCc2nc(C3(c4ccccc4)CC3)[nH]c(=O)c2C1` (stereo not drawn) [44-9], the IC50 runs as follows: under setting [1], under 50 nM; under setting [2], under 10 nM.

With `O=C(C(O)c1cccc(-c2cc(Cl)cc(Cl)c2)c1)N1CCc2nc(C3(c4ccccc4)CC3)[nH]c(=O)c2C1` (stereo not drawn) [44-10], the IC50 by setting is: under setting [1], under 50 nM; under setting [2], under 10 nM.

Regarding `O=C(C(O)c1cccc(-c2cc(F)cc(Cl)c2)c1)N1CCc2nc(C3(c4ccccc4)CC3)[nH]c(=O)c2C1` (stereo not drawn) [44-11], the IC50 by setting is: under setting [1], under 50 nM; under setting [2], under 10 nM.

`O=C(C(O)c1cccc(-c2cnc3ccccc3c2)c1)N1CCc2nc(C3(c4ccccc4)CC3)[nH]c(=O)c2C1` (stereo not drawn) [44-12]: the IC50 is under 50 nM under setting [1] and under 10 nM under setting [2].

Regarding `O=C(C(O)c1cccc(-c2cc(C(F)(F)F)ccc2Cl)c1)N1CCc2nc(C3(c4ccccc4)CC3)[nH]c(=O)c2C1` (stereo not drawn) [44-13], the IC50 was under 50 nM under setting [1] and under 10 nM under setting [2].

In the case of `O=C(C(O)c1cccc(-c2ccc(F)c(Cl)c2)c1)N1CCc2nc(C3(c4ccccc4)CC3)[nH]c(=O)c2C1` (stereo not drawn) [44-14], the IC50 was under 50 nM under setting [1] and under 10 nM under setting [2].

Consider `O=C(C(O)c1cccc(-c2ccc(Cl)c(F)c2)c1)N1CCc2nc(C3(c4ccccc4)CC3)[nH]c(=O)c2C1` (stereo not drawn) [44-15], for which the IC50 is, setting by setting: under setting [1], under 50 nM; under setting [2], under 10 nM.

Turning to `Cc1cc(Cl)cc(-c2cccc(C(O)C(=O)N3CCc4nc(C5(c6ccccc6)CC5)[nH]c(=O)c4C3)c2)c1` (stereo not drawn) [44-16], the IC50 reads like this: under setting [1], under 50 nM; under setting [2], under 10 nM.

For `O=C(C(O)c1cccc(-c2ccnc(C(F)(F)F)c2)c1)N1CCc2nc(C3(c4ccccc4)CC3)[nH]c(=O)c2C1` (stereo not drawn) [44-17], the IC50 runs as follows: under setting [1], under 50 nM; under setting [2], under 10 nM.

As for `O=C(C(O)c1cccc(-c2cccc(SC(F)(F)F)c2)c1)N1CCc2nc(C3(c4ccccc4)CC3)[nH]c(=O)c2C1` (stereo not drawn) [44-18], the IC50 under setting [1] is under 50 nM and the concentration for half-maximal inhibition (IC50) under setting [2] is under 10 nM.

Take `O=C(C(O)c1cccc(-c2cncc(C(F)(F)F)c2)c1)N1CCc2nc(C3(c4ccccc4)CC3)[nH]c(=O)c2C1` (stereo not drawn) [44-19]: under setting [1], the IC50 is under 50 nM.

On to `O=C(C(O)c1cccc(-c2cccc(C3CC3)c2)c1)N1CCc2nc(C3(c4ccccc4)CC3)[nH]c(=O)c2C1` (stereo not drawn) [44-20], for which, under setting [1], the IC50 is under 50 nM.

Turning to `O=C(C(O)c1cccc(-c2cccc(Cl)c2)c1)N1CCc2nc(C3(c4ccccc4)CC3)[nH]c(=O)c2C1` (stereo not drawn) [44-21], the 50% inhibitory concentration (IC50) under setting [1] is under 50 nM.

In the case of `O=C(C(O)c1cccc(-c2cccc(C(F)(F)F)c2)c1F)N1CCc2nc(C3(c4ccccc4)CC3)[nH]c(=O)c2C1` (stereo not drawn) [44-22], the IC50 under setting [1] was under 50 nM.

Under setting [1], `O=C(C(O)c1cccc(-c2ccnc(C(F)(F)F)c2)c1F)N1CCc2nc(C3(c4ccccc4)CC3)[nH]c(=O)c2C1` (stereo not drawn) [44-23] came in with a concentration for half-maximal inhibition (IC50) of under 50 nM.

On to `O=C(C(O)c1cccc(-c2ccc(OC(F)(F)F)cc2)c1)N1CCc2nc(C3(c4ccccc4)CC3)[nH]c(=O)c2C1` (stereo not drawn) [44-24], for which, under setting [1], the IC50 was under 50 nM.

For `O=C(C(O)c1cccc(-c2ccc(C(F)(F)F)cc2)c1)N1CCc2nc(C3(c4ccccc4)CC3)[nH]c(=O)c2C1` (stereo not drawn) [44-25], under setting [1], the IC50 is under 50 nM.

In turn, `Cc1ccc(-c2cccc(C(O)C(=O)N3CCc4nc(C5(c6ccccc6)CC5)[nH]c(=O)c4C3)c2)cc1Cl` (stereo not drawn) [44-26] displayed an IC50 under setting [1] of under 50 nM.

Turning to `O=C(C(O)c1cccc(-c2csc(Cl)c2)c1)N1CCc2nc(C3(c4ccccc4)CC3)[nH]c(=O)c2C1` (stereo not drawn) [44-27], the IC50 under setting [1] was under 50 nM.

Under setting [1], `O=C(C(O)c1cccc(-c2cc(F)ccc2Cl)c1)N1CCc2nc(C3(c4ccccc4)CC3)[nH]c(=O)c2C1` (stereo not drawn) [44-28] returned an IC50 of under 50 nM.

In turn, `COCCOc1cccc(-c2cccc(C(O)C(=O)N3CCc4nc(C5(c6ccccc6)CC5)[nH]c(=O)c4C3)c2)c1` (stereo not drawn) [44-29] had an IC50 under setting [1] of under 50 nM.

Turning to `O=C(C(O)c1cccc(-c2ccc(Cl)s2)c1)N1CCc2nc(C3(c4ccccc4)CC3)[nH]c(=O)c2C1` (stereo not drawn) [44-30], the IC50 under setting [1] was under 50 nM.

Compound `O=C(C(O)c1cccc(-c2ccc(C(F)F)cc2)c1)N1CCc2nc(C3(c4ccccc4)CC3)[nH]c(=O)c2C1` (stereo not drawn) [44-31] showed an IC50 under setting [1] of under 50 nM.

`N#Cc1cccc(-c2cccc(C(O)C(=O)N3CCc4nc(C5(c6ccccc6)CC5)[nH]c(=O)c4C3)c2)c1` (stereo not drawn) [44-32] displayed an IC50 under setting [1] of under 50 nM.

Compound `O=C(C(O)c1cccc(-c2cccc(F)c2)c1F)N1CCc2nc(C3(c4ccccc4)CC3)[nH]c(=O)c2C1` (stereo not drawn) [44-33] registered an IC50 under setting [1] of under 50 nM.

Turning to `Cc1ccc(-c2cccc(C(O)C(=O)N3CCc4nc(C5(c6ccccc6)CC5)[nH]c(=O)c4C3)c2)cc1F` (stereo not drawn) [44-34], under setting [1], the IC50 was under 50 nM.

In the case of `Cc1cc(F)cc(-c2cccc(C(O)C(=O)N3CCc4nc(C5(c6ccccc6)CC5)[nH]c(=O)c4C3)c2)c1` (stereo not drawn) [44-35], the IC50 under setting [1] was under 50 nM.

For the compound `O=C(C(O)c1cccc(-c2ccc(Cl)cc2)c1)N1CCc2nc(C3(c4ccccc4)CC3)[nH]c(=O)c2C1` (stereo not drawn) [44-36], under setting [1], the 50% inhibitory concentration (IC50) was under 50 nM.

Under setting [1], `CCOc1ccc(-c2cccc(C(O)C(=O)N3CCc4nc(C5(c6ccccc6)CC5)[nH]c(=O)c4C3)c2)cc1` (stereo not drawn) [44-37] registered an IC50 of under 50 nM.

For the compound `CC(C)Oc1ccc(-c2cccc(C(O)C(=O)N3CCc4nc(C5(c6ccccc6)CC5)[nH]c(=O)c4C3)c2)cc1` (stereo not drawn) [44-38], the IC50 under setting [1] is under 50 nM.

With `Cc1ccc(F)cc1-c1cccc(C(O)C(=O)N2CCc3nc(C4(c5ccccc5)CC4)[nH]c(=O)c3C2)c1` (stereo not drawn) [44-39], the IC50 under setting [1] is under 50 nM.

Turning to `O=C(C(O)c1cccc(-c2csc3ccccc23)c1)N1CCc2nc(C3(c4ccccc4)CC3)[nH]c(=O)c2C1` (stereo not drawn) [44-40], the IC50 under setting [1] was under 50 nM.

Compound `O=C(C(O)c1cccc(-c2ccc(C(F)(F)F)nc2)c1)N1CCc2nc(C3(c4ccccc4)CC3)[nH]c(=O)c2C1` (stereo not drawn) [44-41] registered a half-maximal inhibitory concentration (IC50) under setting [1] of under 50 nM.

Regarding `CC(C)(C)c1ccc(-c2cccc(C(O)C(=O)N3CCc4nc(C5(c6ccccc6)CC5)[nH]c(=O)c4C3)c2)cc1` (stereo not drawn) [44-42], under setting [1], the IC50 is under 50 nM.

As to `O=C(C(O)c1cccc(-c2ccccc2F)c1)N1CCc2nc(C3(c4ccccc4)CC3)[nH]c(=O)c2C1` (stereo not drawn) [44-43], the IC50 under setting [1] was under 50 nM.

As for `O=C(C(O)c1cccc(-c2cccc(F)c2F)c1)N1CCc2nc(C3(c4ccccc4)CC3)[nH]c(=O)c2C1` (stereo not drawn) [44-44], under setting [1], the IC50 is under 50 nM.

`O=C(C(O)c1cccc(-c2cc(F)cc(F)c2)c1)N1CCc2nc(C3(c4ccccc4)CC3)[nH]c(=O)c2C1` (stereo not drawn) [44-45] returned an IC50 under setting [1] of under 50 nM.

Consider `O=C(C(O)c1cccc(-c2cccc(C(F)(F)F)c2Cl)c1)N1CCc2nc(C3(c4ccccc4)CC3)[nH]c(=O)c2C1` (stereo not drawn) [44-46], for which, under setting [1], the concentration for half-maximal inhibition (IC50) is under 50 nM.

For the compound `O=C(C(O)c1cccc(-c2cccc(F)c2)c1)N1CCc2nc(C3(c4ccccc4)CC3)[nH]c(=O)c2C1` (stereo not drawn) [44-47], the 50% inhibitory concentration (IC50) under setting [1] is under 50 nM.

For the compound `O=C(C(O)c1cccc(-c2cc(F)ccc2F)c1)N1CCc2nc(C3(c4ccccc4)CC3)[nH]c(=O)c2C1` (stereo not drawn) [44-48], under setting [1], the IC50 is under 50 nM.

For the compound `O=C(C(O)c1cccc(-c2ccc(F)c(F)c2)c1)N1CCc2nc(C3(c4ccccc4)CC3)[nH]c(=O)c2C1` (stereo not drawn) [44-49], under setting [1], the IC50 was under 50 nM.

Consider `O=C(C(O)c1cccc(-c2ccc(F)cc2)c1)N1CCc2nc(C3(c4ccccc4)CC3)[nH]c(=O)c2C1` (stereo not drawn) [44-50], for which, under setting [1], the IC50 is under 50 nM.

Consider `Cc1cccc(-c2cccc(C(O)C(=O)N3CCc4nc(C5(c6ccccc6)CC5)[nH]c(=O)c4C3)c2)c1` (stereo not drawn) [44-51], for which, under setting [1], the IC50 is under 50 nM.

In the case of `O=C(C(O)c1cccc(-c2ccc(F)cc2F)c1)N1CCc2nc(C3(c4ccccc4)CC3)[nH]c(=O)c2C1` (stereo not drawn) [44-52], the IC50 under setting [1] is under 50 nM.

In the case of `COc1cccc(-c2cccc(C(O)C(=O)N3CCc4nc(C5(c6ccccc6)CC5)[nH]c(=O)c4C3)c2)c1` (stereo not drawn) [44-53], the IC50 under setting [1] was under 50 nM.

Regarding `O=C(C(O)c1cccc(-c2ccccc2C(F)(F)F)c1)N1CCc2nc(C3(c4ccccc4)CC3)[nH]c(=O)c2C1` (stereo not drawn) [44-54], the concentration for half-maximal inhibition (IC50) under setting [1] is under 50 nM.

Take `O=C(C(O)c1cccc(-c2ccccc2)c1)N1CCc2nc(C3(c4ccccc4)CC3)[nH]c(=O)c2C1` (stereo not drawn) [44-55]: the IC50 under setting [1] was under 50 nM.

Consider `Cc1ccc(-c2cccc(C(O)C(=O)N3CCc4nc(C5(c6ccccc6)CC5)[nH]c(=O)c4C3)c2)cc1` (stereo not drawn) [44-56], for which the IC50 under setting [1] was under 50 nM.

For `O=C(C(O)c1cccc(-c2ccccc2OC(F)(F)F)c1)N1CCc2nc(C3(c4ccccc4)CC3)[nH]c(=O)c2C1` (stereo not drawn) [44-57], under setting [1], the IC50 was under 50 nM.

The compound `COc1ccc(-c2cccc(C(O)C(=O)N3CCc4nc(C5(c6ccccc6)CC5)[nH]c(=O)c4C3)c2)cc1` (stereo not drawn) [44-58] came in with an IC50 under setting [1] of under 50 nM.

In the case of `O=C([C@H](O)c1cccc(-c2cccc(F)c2)c1)N1CCc2nc(C3(c4ccccc4)CC3)[nH]c(=O)c2C1` [44-70], the 50% inhibitory concentration (IC50) under setting [1] is under 50 nM.

Take `O=C([C@H](O)c1cccc(-c2cccc(C(F)(F)F)c2)c1)N1CCc2nc(C3(c4ccccc4)CC3)[nH]c(=O)c2C1` [44-71]: the IC50 was under 50 nM under setting [1] and under 3 nM under setting [2].

For `O=C([C@H](O)c1cccc(-c2cccc(OC(F)(F)F)c2)c1)N1CCc2nc(C3(c4ccccc4)CC3)[nH]c(=O)c2C1` [44-72], the IC50 under setting [1] is under 50 nM and the IC50 under setting [2] was under 3 nM.

Take `O=C([C@H](O)c1cccc(-c2cccc(Cl)c2)c1)N1CCc2nc(C3(c4ccccc4)CC3)[nH]c(=O)c2C1` [44-73]: the IC50 runs as follows: under setting [1], under 50 nM; under setting [2], under 10 nM.

For the compound `CC(C)(C)c1cccc(-c2cccc([C@@H](O)C(=O)N3CCc4nc(C5(c6ccccc6)CC5)[nH]c(=O)c4C3)c2)c1` [44-74], the IC50 is, setting by setting: under setting [1], under 50 nM; under setting [2], under 3 nM.
